# Measured values reported in US10351561B2, “Pyrazolo[3,4-b]pyridines and imidazo[1,5-b]pyridazines as PDE1 inhibitors” (H. Lundbeck A/S, priority 2016, dated 2019).
# Like-named read-outs stand apart in the source and are kept apart here.
# Columns and labels:
# Format in all cases: biochemical
# Settings in all cases: 15 nM tritium labelled cAMP, 1 hr at room temperature, SPA beads
# PDE1A = PDE1A (Homo sapiens, UniProt P54750); assay: PDE1 inhibition assay (PDE1A), SPA with tritium labelled cAMP
# Procedure: (§1) PDE1A, PDE1B and PDE1C assays were performed as follows: the assays were performed in 60 μL samples containing a fixed amount of the PDE1 enzyme (sufficient to convert 20-25% of the cyclic nucleotide substrate), a buffer (50 mM HEPES (4-(2-hydroxyethyl)-1-piperazineethanesulfonic acid) pH 7.6; 10 mM MgCl2; 0.02% Tween20), 0.1 mg/ml BSA (bovine serum albumin), 15 nM tritium labelled cAMP and varying amounts of inhibitors. Reactions were initiated by addition of the cyclic nucleotide substrate, and reactions were allowed to proceed for 1 hr at room temperature before being terminated through mixing with 20 μL (0.2 mg) yttrium silicate SPA beads (PerkinElmer). The beads were allowed to settle for 1 hr in the dark before the plates were counted in a Wallac 1450 Microbeta counter. The measured signals were converted to activity relative to an uninhibited control (100%) and IC50 values were calculated using XIFit (model 205, IDBS).
# PDE1B = PDE1B (Homo sapiens, UniProt Q01064); assay: PDE1 inhibition assay (PDE1B), SPA with tritium labelled cAMP
# Procedure: Reactions were initiated by addition of the cyclic nucleotide substrate, and reactions were allowed to proceed for 1 hr at room temperature before being terminated through mixing with 20 μL (0.2 mg) yttrium silicate SPA beads (PerkinElmer).
# PDE1C = PDE1C (Homo sapiens, UniProt Q14123); assay: PDE1 inhibition assay (PDE1C), SPA with tritium labelled cAMP
# Procedure: as §1
# Chain of PDE1C (Q14123 whole entry): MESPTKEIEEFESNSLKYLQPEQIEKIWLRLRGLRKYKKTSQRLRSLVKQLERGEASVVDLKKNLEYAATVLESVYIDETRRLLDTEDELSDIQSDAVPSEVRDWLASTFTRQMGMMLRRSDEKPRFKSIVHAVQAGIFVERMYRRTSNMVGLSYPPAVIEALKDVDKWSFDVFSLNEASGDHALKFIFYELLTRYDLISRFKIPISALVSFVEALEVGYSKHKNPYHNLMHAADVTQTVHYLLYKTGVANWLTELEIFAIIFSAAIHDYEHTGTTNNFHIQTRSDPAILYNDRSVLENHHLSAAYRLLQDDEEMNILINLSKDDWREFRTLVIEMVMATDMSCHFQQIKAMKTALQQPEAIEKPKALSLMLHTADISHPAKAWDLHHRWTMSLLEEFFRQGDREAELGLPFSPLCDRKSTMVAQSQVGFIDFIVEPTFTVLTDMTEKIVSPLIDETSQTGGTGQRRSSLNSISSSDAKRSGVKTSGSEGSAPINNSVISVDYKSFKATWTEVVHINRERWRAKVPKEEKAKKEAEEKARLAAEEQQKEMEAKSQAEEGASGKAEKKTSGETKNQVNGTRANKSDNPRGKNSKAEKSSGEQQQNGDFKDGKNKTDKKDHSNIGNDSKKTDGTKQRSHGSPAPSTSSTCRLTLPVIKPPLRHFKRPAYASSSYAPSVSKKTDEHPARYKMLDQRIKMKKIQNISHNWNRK
# Chain of PDE1B (Q01064 whole entry): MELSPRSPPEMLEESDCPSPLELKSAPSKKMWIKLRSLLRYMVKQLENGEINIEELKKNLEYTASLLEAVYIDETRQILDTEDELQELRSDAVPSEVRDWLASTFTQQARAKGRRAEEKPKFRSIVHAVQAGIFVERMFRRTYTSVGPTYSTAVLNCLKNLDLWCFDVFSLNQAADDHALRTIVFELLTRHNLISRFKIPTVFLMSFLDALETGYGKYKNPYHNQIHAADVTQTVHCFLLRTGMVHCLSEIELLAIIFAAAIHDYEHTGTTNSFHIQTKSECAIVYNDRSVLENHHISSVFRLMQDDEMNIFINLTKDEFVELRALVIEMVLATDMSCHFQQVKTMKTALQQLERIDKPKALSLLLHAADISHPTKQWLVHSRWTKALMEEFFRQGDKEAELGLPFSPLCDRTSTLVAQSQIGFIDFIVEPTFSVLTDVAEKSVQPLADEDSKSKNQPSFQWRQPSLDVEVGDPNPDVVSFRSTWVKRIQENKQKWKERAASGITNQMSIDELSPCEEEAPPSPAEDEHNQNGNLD
# Chain of PDE1A (P54750 whole entry): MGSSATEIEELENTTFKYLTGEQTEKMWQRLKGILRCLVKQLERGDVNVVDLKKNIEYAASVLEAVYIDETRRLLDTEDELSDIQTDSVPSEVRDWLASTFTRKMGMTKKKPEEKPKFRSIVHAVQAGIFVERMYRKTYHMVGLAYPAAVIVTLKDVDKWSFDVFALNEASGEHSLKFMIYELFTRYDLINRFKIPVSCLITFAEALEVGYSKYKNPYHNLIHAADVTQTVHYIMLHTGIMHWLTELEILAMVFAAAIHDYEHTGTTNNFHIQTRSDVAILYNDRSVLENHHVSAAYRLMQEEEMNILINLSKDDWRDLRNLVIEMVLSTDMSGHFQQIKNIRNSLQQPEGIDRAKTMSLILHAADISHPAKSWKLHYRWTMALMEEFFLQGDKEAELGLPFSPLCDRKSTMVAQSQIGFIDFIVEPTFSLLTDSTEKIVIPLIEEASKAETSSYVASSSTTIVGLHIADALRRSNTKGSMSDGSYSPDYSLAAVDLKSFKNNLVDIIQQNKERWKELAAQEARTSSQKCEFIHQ
SMILES,IC50 (PDE1A),"IC50 (PDE1B; read-out: PDE1B, IC50)",IC50 (PDE1C),"IC50 (PDE1B; PDE1B, IC50 (nM))"
"CCOc1ncccc1-c1cc(NCc2nnn(C)n2)c2c(C(C)C)nn(C)c2n1 [Example 20, 6-(2-ethoxy-3-pyridyl)-3-isopropyl-1-methyl-N-[(2-methyltetrazol-5-yl)methyl]pyrazolo[3,4-b]pyridin-4-amine]",0.016 µM,2.8 nM,0.03 µM,–
"CCOc1ncccc1-c1cc(NCc2ccn(C)n2)c2c(C(C)C)nn(C)c2n1 [Example 21, 6-(2-ethoxy-3-pyridyl)-3-isopropyl-1-methyl-N-[(1-methylpyrazol-3-yl)methyl]pyrazolo[3,4-b]pyridin-4-amine]",0.03 µM,5.3 nM,0.036 µM,–
"CCOc1ncccc1-c1cc(NCc2cnn(C)c2)c2c(C(C)C)nc(C)n2n1 [Example 22, 2-(2-ethoxy-3-pyridyl)-5-isopropyl-7-methyl-N-[(1-methylpyrazol-4-yl)methyl]imidazo[1,5-b]pyridazin-4-amine]",0.017 µM,1.8 nM,0.016 µM,–
"CCOc1ncccc1-c1cc(NCc2nnn(C)n2)c2c(C(C)C)nc(C)n2n1 [Example 23, 2-(2-ethoxy-3-pyridyl)-5-isopropyl-7-methyl-N-[(2-methyltetrazol-5-yl)methyl]imidazo[1,5-b]pyridazin-4-amine]",0.0054 µM,0.77 nM,0.0047 µM,–
"CCOc1ncccc1-c1cc(NCc2ccn(C)n2)c2c(C(C)C)nc(C)n2n1 [Example 24, 2-(2-ethoxy-3-pyridyl)-5-isopropyl-7-methyl-N-[(1-methylpyrazol-3-yl)methyl]imidazo[1,5-b]pyridazin-4-amine]",0.014 µM,1.8 nM,0.013 µM,–
"CCOc1ncccc1-c1cc(NCc2cncc(OC)c2)c2c(C(C)C)nn(C)c2n1 [Example 25, 6-(2-ethoxy-3-pyridyl)-3-isopropyl-N-[(5-methoxy-3-pyridyl)methyl]-1-methyl-pyrazolo[3,4-b]pyridin-4-amine]",0.016 µM,6.3 nM,0.018 µM,–
"CCOc1ncccc1-c1cc(NCc2cnn(C)n2)c2c(C(C)C)nn(C)c2n1 [Example 26, 6-(2-ethoxypyridin-3-yl)-3-isopropyl-1-methyl-N-((2-methyl-2H-1,2,3-triazol-4-yl)methyl)-1H-pyrazolo[3,4-b]pyridin-4-amine]",0.11 µM,–,0.075 µM,18 nM
"CCOc1ncccc1-c1cc(NCc2cnc(C)o2)c2c(C(C)C)nn(C)c2n1 [Example 27, 6-(2-ethoxy-3-pyridyl)-3-isopropyl-1-methyl-N-[(2-methyloxazol-5-yl)methyl]pyrazolo[3,4-b]pyridin-4-amine]",0.053 µM,10 nM,0.06 µM,–
"CCOc1ncccc1-c1cc(NCc2cnc(C)s2)c2c(C(C)C)nn(C)c2n1 [Example 28, 6-(2-ethoxy-3-pyridyl)-3-isopropyl-1-methyl-N-[(2-methylthiazol-5-yl)methyl]pyrazolo[3,4-b]pyridin-4-amine]",0.014 µM,4.4 nM,0.013 µM,–
"CCOc1ncccc1-c1cc(NCc2cn(C)nn2)c2c(C(C)C)nn(C)c2n1 [Example 29, 6-(2-ethoxy-3-pyridyl)-3-isopropyl-1-methyl-N-[(1-methyltriazol-4-yl)methyl]pyrazolo[3,4-b]pyridin-4-amine]",0.018 µM,1.6 nM,0.033 µM,–
"CCOc1ncccc1-c1cc(NCc2cn[nH]c2)c2c(C(C)C)nn(C)c2n1 [Example 30, 6-(2-ethoxy-3-pyridyl)-3-isopropyl-1-methyl-N-(1H-pyrazol-4-ylmethyl)pyrazolo[3,4-b]pyridin-4-amine]",0.085 µM,16 nM,0.076 µM,–
"CCOc1ncccc1-c1cc(NCc2nnc(C)o2)c2c(C(C)C)nn(C)c2n1 [Example 31, 6-(2-ethoxy-3-pyridyl)-3-isopropyl-1-methyl-N-[(5-methyl-1,3,4-oxadiazol-2-yl)methyl]pyrazolo[3,4-b]pyridin-4-amine]",0.11 µM,16 nM,0.11 µM,–
"CCOc1ncccc1-c1cc(NCc2nc(C)no2)c2c(C(C)C)nn(C)c2n1 [Example 32, 6-(2-ethoxy-3-pyridyl)-3-isopropyl-1-methyl-N-[(3-methyl-1,2,4-oxadiazol-5-yl)methyl]pyrazolo[3,4-b]pyridin-4-amine]",0.082 µM,7.8 nM,0.063 µM,–
"CCCOc1ncccc1-c1cc(NCc2ncn(C)n2)c2c(C(C)C)nn(C)c2n1 [Example 33, 3-isopropyl-1-methyl-N-[(1-methyl-1,2,4-triazol-3-yl)methyl]-6-(2-propoxy-3-pyridyl)pyrazolo[3,4-b]pyridin-4-amine]",0.0034 µM,0.42 nM,0.0052 µM,–
"CCCOc1ncccc1-c1cc(NCc2cn(C)cn2)c2c(C(C)C)nn(C)c2n1 [Example 34, 3-isopropyl-1-methyl-N-[(1-methylimidazol-4-yl)methyl]-6-(2-propoxy-3-pyridyl)pyrazolo[3,4-b]pyridin-4-amine]",0.0027 µM,0.29 nM,0.0038 µM,–
"CCOc1ncccc1-c1cc(NCc2nccc(C)n2)c2c(C(C)C)nn(C)c2n1 [Example 35, 6-(2-ethoxy-3-pyridyl)-3-isopropyl-1-methyl-N-[(4-methylpyrimidin-2-yl)methyl]pyrazolo[3,4-b]pyridin-4-amine]",0.2 µM,25 nM,0.18 µM,–
"CCOc1ncccc1-c1cc(NCc2ncccn2)c2c(C(C)C)nn(C)c2n1 [Example 36, 6-(2-ethoxy-3-pyridyl)-3-isopropyl-1-methyl-N-(pyrimidin-2-ylmethyl)pyrazolo[3,4-b]pyridin-4-amine]",0.05 µM,4 nM,0.077 µM,–
"CCOc1ncccc1-c1cc(NCc2ccc(OC)nc2)c2c(C(C)C)nn(C)c2n1 [Example 37, 6-(2-ethoxy-3-pyridyl)-3-isopropyl-N-[(6-methoxy-3-pyridyl)methyl]-1-methyl-pyrazolo[3,4-b]pyridin-4-amine]",0.12 µM,27 nM,0.046 µM,–
"CCOc1ncccc1-c1cc(NCc2cccnc2C(F)(F)F)c2c(C(C)C)nn(C)c2n1 [Example 38, 6-(2-ethoxy-3-pyridyl)-3-isopropyl-1-methyl-N-[[2-(trifluoromethyl)-3-pyridyl]methyl]pyrazolo[3,4-b]pyridin-4-amine]",0.18 µM,33 nM,0.18 µM,–
"CCOc1ncccc1-c1cc(NCc2cc(OC)ccn2)c2c(C(C)C)nn(C)c2n1 [Example 39, 6-(2-ethoxy-3-pyridyl)-3-isopropyl-N-[(4-methoxy-2-pyridyl)methyl]-1-methyl-pyrazolo[3,4-b]pyridin-4-amine]",0.027 µM,3.4 nM,0.025 µM,–
"CCOc1ncccc1-c1cc(NCc2ccccn2)c2c(C(C)C)nn(C)c2n1 [Example 40, 6-(2-ethoxy-3-pyridyl)-3-isopropyl-1-methyl-N-(2-pyridylmethyl)pyrazolo[3,4-b]pyridin-4-amine]",0.068 µM,8.9 nM,0.082 µM,–
"CCOc1ncccc1-c1cc(NCc2cccc(OC)n2)c2c(C(C)C)nn(C)c2n1 [Example 41, 6-(2-ethoxy-3-pyridyl)-3-isopropyl-N-[(6-methoxy-2-pyridyl)methyl]-1-methyl-pyrazolo[3,4-b]pyridin-4-amine]",0.44 µM,110 nM,0.56 µM,–
"CCOc1ncccc1-c1cc(NCc2cccc(C)n2)c2c(C(C)C)nn(C)c2n1 [Example 42, 6-(2-ethoxy-3-pyridyl)-3-isopropyl-1-methyl-N-[(6-methyl-2-pyridyl)methyl]pyrazolo[3,4-b]pyridin-4-amine]",0.18 µM,20 nM,0.2 µM,–
"CCOc1ncccc1-c1cc(NCc2ncon2)c2c(C(C)C)nc(C)n2n1 [Example 43, 2-(2-ethoxy-3-pyridyl)-5-isopropyl-7-methyl-N-(1,2,4-oxadiazol-3-ylmethyl)imidazo[1,5-b]pyridazin-4-amine]",0.04 µM,5.8 nM,0.034 µM,–
"CCOc1ncccc1-c1cc(NCc2cnn(C)n2)c2c(C(C)C)nc(C)n2n1 [Example 44, 2-(2-ethoxy-3-pyridyl)-5-isopropyl-7-methyl-N-[(2-methyltriazol-4-yl)methyl]imidazo[1,5-b]pyridazin-4-amine]",0.038 µM,5.1 nM,0.024 µM,–
"CCOc1ncccc1-c1cc(NCc2nnc(C)o2)c2c(C(C)C)nc(C)n2n1 [Example 45, 2-(2-ethoxy-3-pyridyl)-5-isopropyl-7-methyl-N-[(5-methyl-1,3,4-oxadiazol-2-yl)methyl]imidazo[1,5-b]pyridazin-4-amine]",0.042 µM,7.8 nM,0.037 µM,–
"CCOc1ncccc1-c1cc(NCc2nc(C)no2)c2c(C(C)C)nc(C)n2n1 [Example 46, 2-(2-ethoxy-3-pyridyl)-5-isopropyl-7-methyl-N-[(3-methyl-1,2,4-oxadiazol-5-yl)methyl]imidazo[1,5-b]pyridazin-4-amine]",0.021 µM,4.1 nM,0.014 µM,–
